Among the data in ChEMBL document CHEMBL1140561, “A phosphorylated prodrug for the inhibition of Pin1” (Bioorg Med Chem Lett, 2007) are IC50 values, retold here.

In experiment [1] the target is Peptidyl-prolyl cis-trans isomerase NIMA-interacting 1 (Homo sapiens, UniProt Q13526). Briefly: Inhibition of Pin1 PPIase activity.
Another experiment has as its system A2780. Kind of experiment: Antiproliferative activity against human A2780 cells. Format: functional, cell-based.

Peptidyl-prolyl cis-trans isomerase NIMA-interacting 1, sequence (Q13526 whole entry): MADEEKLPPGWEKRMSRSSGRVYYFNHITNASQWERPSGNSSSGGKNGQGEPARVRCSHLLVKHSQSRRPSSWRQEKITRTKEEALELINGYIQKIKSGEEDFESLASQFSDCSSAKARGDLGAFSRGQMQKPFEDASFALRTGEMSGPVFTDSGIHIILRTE

The IC50 is the midpoint of a concentration-inhibition curve. Regarding `O=C(N[C@H](/C=C1\CCC[C@H]1C(=O)NCCc1c[nH]c2ccccc12)COP(=O)(O)O)OCC1c2ccccc2-c2ccccc21`, the IC50 in experiment [1] worked out at 28.3 µM; in the experiment on A2780 it was 46.2 µM.

In the experiment on A2780, `CC(C)(C)C(=O)OCOP(=O)(OCOC(=O)C(C)(C)C)OC[C@@H](/C=C1\CCC[C@H]1C(=O)NCCc1c[nH]c2ccccc12)NC(=O)OCC1c2ccccc2-c2ccccc21` had an IC50 of 26.9 µM.
